Converted amounts (≈) assume the structure as drawn.

The MIC is the least concentration at which growth counts as inhibited.

Assay [1] deals with Saccharomyces cerevisiae. Nature of the assay: Antifungal activity against Saccharomyces cerevisiae at 50 ug/ml after 24 hrs by agar well diffusion assay. It counts as functional. As to conditions: read-out: DIZ.
Assay [2] deals with Candida albicans. Kind of assay: Antifungal activity against Candida albicans NRRL Y-477 by two-fold serial dilution method. It counts as functional.
Assay [3] concerns Candida albicans. Kind of assay: Antifungal activity against Candida albicans NRRL Y-477 at 50 ug/ml after 24 hrs by agar well diffusion assay. As to conditions: NRRL Y-477, 24 h, read-out: DIZ. The format is functional. In general terms: Agar diffusion results depend on both activity and mobility in agar.
The test system of assay [4] is Saccharomyces cerevisiae. Nature of the assay: Antifungal activity against Saccharomyces cerevisiae by two-fold serial dilution method. It counts as functional.
Assay [5] deals with Escherichia coli. Nature of the assay: Antimicrobial activity against Escherichia coli ATCC 25922 at 100 ug/ml after 24 hrs by agar well diffusion assay. It counts as functional. As to conditions: ATCC 25922, 24 h, read-out: DIZ.
Assay [6] relates to Klebsiella pneumoniae. Nature of the assay: Antimicrobial activity against Klebsiella pneumoniae ATCC 13883 at 100 ug/ml after 24 hrs by agar well diffusion assay. The conditions noted are these: ATCC 13883, 24 h, read-out: DIZ. It counts as functional.
Assay [7] deals with Pseudomonas aeruginosa. Nature of the assay: Antimicrobial activity against Pseudomonas aeruginosa ATCC 27953 at 100 ug/ml after 24 hrs by agar well diffusion assay. It counts as functional. The conditions noted are these: ATCC 27953, 24 h, read-out: DIZ.
Assay [8] has as its system Micrococcus luteus. Nature of the assay: Antimicrobial activity against Sarcina lutea after 24 hrs by two-fold serial dilution method. The format is functional.
Assay [9] has as its system Staphylococcus aureus. Nature of the assay: Antimicrobial activity against Staphylococcus aureus ATCC 29213 at 100 ug/ml after 24 hrs by agar well diffusion assay. It counts as functional. As to conditions: ATCC 29213, 24 h, read-out: DIZ.
The subject of assay [10] is Priestia megaterium. Nature of the assay: Antimicrobial activity against Bacillus megaterium ATCC 9885 after 24 hrs by two-fold serial dilution method. The format is functional. As to conditions: ATCC 9885, 24 h.
In assay [11] the test system is Pseudomonas aeruginosa. Nature of the assay: Antimicrobial activity against Pseudomonas aeruginosa ATCC 27953 after 24 hrs by two-fold serial dilution method. The conditions noted are these: ATCC 27953, 24 h. The format is functional.
For assay [12], the system named is Staphylococcus aureus. Nature of the assay: Antimicrobial activity against Staphylococcus aureus ATCC 29213 after 24 hrs by two-fold serial dilution method. The format is functional. As to conditions: ATCC 29213, 24 h.
In assay [13] the test system is Micrococcus luteus. Kind of assay: Antimicrobial activity against Sarcina lutea at 100 ug/ml after 24 hrs by agar well diffusion assay. The conditions noted are these: read-out: DIZ. The format is functional.
Assay [14] has as its system Candida albicans. Kind of assay: Antifungal activity against Candida albicans NRRL Y-477 at 100 ug/ml after 24 hrs by agar well diffusion assay. As to conditions: NRRL Y-477, 24 h, read-out: DIZ. The format is functional.
Assay [15] relates to Escherichia coli. Nature of the assay: Antimicrobial activity against Escherichia coli ATCC 25922 after 24 hrs by two-fold serial dilution method. The format is functional. As to conditions: ATCC 25922, 24 h.
Assay [16] deals with Klebsiella pneumoniae. Kind of assay: Antimicrobial activity against Klebsiella pneumoniae ATCC 13883 after 24 hrs by two-fold serial dilution method. The format is functional. As to conditions: ATCC 13883, 24 h.
In assay [17] the test system is Saccharomyces cerevisiae. Kind of assay: Antifungal activity against Saccharomyces cerevisiae at 100 ug/ml after 24 hrs by agar well diffusion assay. It counts as functional. As to conditions: read-out: DIZ.
Assay [18] concerns Priestia megaterium. Nature of the assay: Antimicrobial activity against Bacillus megaterium ATCC 9885 at 100 ug/ml after 24 hrs by agar well diffusion assay. It counts as functional. The conditions noted are these: ATCC 9885, 24 h, read-out: DIZ.
The test system of assay [19] is Bacillus subtilis. Nature of the assay: Antimicrobial activity against Bacillus subtilis ATCC 6633 after 24 hrs by two-fold serial dilution method. The format is functional. As to conditions: ATCC 6633, 24 h.
Assay [20] deals with Bacillus subtilis. Kind of assay: Antimicrobial activity against Bacillus subtilis ATCC 6633 at 100 ug/ml after 24 hrs by agar well diffusion assay. The format is functional. The conditions noted are these: ATCC 6633, 24 h, read-out: DIZ.
Assay [21] has as its system Klebsiella pneumoniae. Kind of assay: microbe, parasite or virus in culture. As to conditions: ATCC 13883, 24 h, read-out: DIZ.
Description: Antimicrobial activity against Klebsiella pneumoniae ATCC 13883 at 50 ug/ml after 24 hrs by agar well diffusion assay
The subject of assay [22] is Bacillus subtilis. Kind of assay: microbe, parasite or virus in culture. As to conditions: ATCC 6633, 24 h, read-out: DIZ.
Description: Antimicrobial activity against Bacillus subtilis ATCC 6633 at 50 ug/ml after 24 hrs by agar well diffusion assay
The subject of assay [23] is Staphylococcus aureus. Nature of the assay: microbe, parasite or virus in culture. As to conditions: ATCC 29213, 24 h, read-out: DIZ.
Description: Antimicrobial activity against Staphylococcus aureus ATCC 29213 at 50 ug/ml after 24 hrs by agar well diffusion assay
Assay [24] concerns Micrococcus luteus. Nature of the assay: Antimicrobial activity against Sarcina lutea at 50 ug/ml after 24 hrs by agar well diffusion assay. The format is functional. The conditions noted are these: read-out: DIZ.
Assay [25] concerns Pseudomonas aeruginosa. Nature of the assay: microbe, parasite or virus in culture. As to conditions: ATCC 27953, 24 h, read-out: DIZ.
Description: Antimicrobial activity against Pseudomonas aeruginosa ATCC 27953 at 50 ug/ml after 24 hrs by agar well diffusion assay
Assay [26] concerns Priestia megaterium. Kind of assay: Antimicrobial activity against Bacillus megaterium ATCC 9885 at 50 ug/ml after 24 hrs by agar well diffusion assay. It counts as functional. As to conditions: ATCC 9885, 24 h, read-out: DIZ.

Take `CC(=O)N1CCN(c2ccc(OCC3COC(Cn4ccnc4)(c4ccc(Cl)cc4Cl)O3)cc2)CC1` (centres undefined) [KETOCONAZOLE]: the zone of inhibition at 50 µg/mL turned out to be 23 mm in the assay with Saccharomyces cerevisiae [1] and 22 mm in the assay with Candida albicans [3]. The MIC with Candida albicans [2] and in the assay on Saccharomyces cerevisiae [4] was 8.25 µg/mL (≈ 15.5 µM) each time.
With `Cc1ccc(-n2nnc(C3=NN(c4nc(-c5ccccc5)cs4)C(c4ccc(F)cc4)C3)c2C)cc1` (centres undefined), the zone of inhibition at 100 µg/mL in the assay on Escherichia coli [5] amounted to 16 mm; in the assay with Klebsiella pneumoniae [6] it was 26 mm; with Pseudomonas aeruginosa [7] it was 28 mm; in the assay on Staphylococcus aureus [9], 26 mm; with Micrococcus luteus [13] it was 22 mm; in the assay with Candida albicans [14], 20 mm. Further, the figures for the zone of inhibition at 100 µg/mL with Saccharomyces cerevisiae [17], in the assay with Priestia megaterium [18] and in the assay with Bacillus subtilis [20] were 22 mm, 24 mm and 24 mm, respectively. Also, the MIC with Micrococcus luteus [8] was determined as 66 µg/mL (≈ 133 µM); with Priestia megaterium [10], 33 µg/mL (≈ 66.7 µM); against Pseudomonas aeruginosa [11], 8.25 µg/mL (≈ 16.7 µM); in the assay with Staphylococcus aureus [12] it was 16.5 µg/mL (≈ 33.4 µM); in the assay with Escherichia coli [15], 132 µg/mL (≈ 267 µM); against Candida albicans [2] it was 66 µg/mL (≈ 133 µM). Besides, the MIC in the assay on Klebsiella pneumoniae [16], in the assay with Saccharomyces cerevisiae [4] and with Bacillus subtilis [19] was 33 µg/mL (≈ 66.7 µM) throughout.
For `Cc1ccc(-n2nnc(C3=NN(c4nc(-c5ccc(Br)cc5)cs4)C(c4ccc(F)cc4)C3)c2C)cc1` (centres undefined), the zone of inhibition at 100 µg/mL in the assay with Escherichia coli [5] was 22 mm; in the assay with Klebsiella pneumoniae [6] it was 24 mm; in the assay with Staphylococcus aureus [9], 30 mm; in the assay on Micrococcus luteus [13] it was 22 mm; with Candida albicans [14], 30 mm; in the assay on Saccharomyces cerevisiae [17], 30 mm. Further, the figures for the zone of inhibition at 100 µg/mL with Priestia megaterium [18] and in the assay with Bacillus subtilis [20] were 22 mm and 26 mm, respectively. Also, the MIC against Micrococcus luteus [8] was 66 µg/mL (≈ 115 µM); in the assay with Priestia megaterium [10], 33 µg/mL (≈ 57.5 µM); in the assay with Staphylococcus aureus [12], 8.25 µg/mL (≈ 14.4 µM); in the assay on Escherichia coli [15], 16.5 µg/mL (≈ 28.8 µM); against Candida albicans [2] it was 8.25 µg/mL (≈ 14.4 µM); against Klebsiella pneumoniae [16], 16.5 µg/mL (≈ 28.8 µM). Moreover, the values for the MIC against Saccharomyces cerevisiae [4] and in the assay on Bacillus subtilis [19] were 8.25 µg/mL (≈ 14.4 µM) and 33 µg/mL (≈ 57.5 µM), respectively.
Consider `Cc1ccc(-n2nnc(C(=O)/C=C/c3ccccc3)c2C)cc1`, for which the zone of inhibition at 100 µg/mL in the assay on Escherichia coli [5] is 32 mm; in the assay with Klebsiella pneumoniae [6], 16 mm; in the assay with Pseudomonas aeruginosa [7], 28 mm; in the assay on Staphylococcus aureus [9], 22 mm; with Micrococcus luteus [13], 26 mm; in the assay with Candida albicans [14] it was 24 mm. Moreover, the zone of inhibition at 100 µg/mL amounted to 22 mm in the assay on Saccharomyces cerevisiae [17] and 26 mm with Bacillus subtilis [20]. Also, the minimum inhibitory concentration (MIC) is 16.5 µg/mL (≈ 54.4 µM) against Micrococcus luteus [8]; 8.25 µg/mL (≈ 27.2 µM) in the assay with Pseudomonas aeruginosa [11]; 16.5 µg/mL (≈ 54.4 µM) against Staphylococcus aureus [12]; 8.25 µg/mL (≈ 27.2 µM) against Escherichia coli [15]; 16.5 µg/mL (≈ 54.4 µM) in the assay with Candida albicans [2]; 132 µg/mL (≈ 435 µM) with Klebsiella pneumoniae [16]. Further, the MIC against Saccharomyces cerevisiae [4] came to 66 µg/mL (≈ 218 µM); against Bacillus subtilis [19], 33 µg/mL (≈ 109 µM).
With `Cc1ccc(-n2nnc(C3=NNC(c4ccc(C#N)cc4)C3)c2C)cc1` (centres undefined), the zone of inhibition at 100 µg/mL in the assay with Escherichia coli [5] was determined as 30 mm; with Klebsiella pneumoniae [6], 30 mm; in the assay with Pseudomonas aeruginosa [7] it was 28 mm; in the assay on Micrococcus luteus [13], 28 mm; with Candida albicans [14], 28 mm; in the assay with Saccharomyces cerevisiae [17], 30 mm. In addition, the zone of inhibition at 100 µg/mL came to 24 mm in the assay with Priestia megaterium [18] and 26 mm with Bacillus subtilis [20]. Besides, the MIC against Micrococcus luteus [8] amounted to 8.25 µg/mL (≈ 24.1 µM); in the assay on Priestia megaterium [10] it was 33 µg/mL (≈ 96.4 µM); against Pseudomonas aeruginosa [11] it was 8.25 µg/mL (≈ 24.1 µM); against Escherichia coli [15] it was 8.25 µg/mL (≈ 24.1 µM); with Candida albicans [2] it was 8.25 µg/mL (≈ 24.1 µM); against Klebsiella pneumoniae [16], 8.25 µg/mL (≈ 24.1 µM). In addition, the MIC against Saccharomyces cerevisiae [4] is 8.25 µg/mL (≈ 24.1 µM); against Bacillus subtilis [19] it was 33 µg/mL (≈ 96.4 µM).
Consider `Cc1ccc(-n2nnc(C3=NNC(c4ccc(F)cc4)C3)c2C)cc1` (centres undefined), for which the zone of inhibition at 100 µg/mL came out at 16 mm in the assay on Escherichia coli [5]; 16 mm with Klebsiella pneumoniae [6]; 30 mm in the assay on Pseudomonas aeruginosa [7]; 20 mm in the assay with Staphylococcus aureus [9]; 18 mm with Micrococcus luteus [13]; 16 mm in the assay on Candida albicans [14]. Further, the zone of inhibition at 100 µg/mL in the assay with Saccharomyces cerevisiae [17] stood at 18 mm; with Priestia megaterium [18], 16 mm. Besides, the MIC in the assay with Micrococcus luteus [8] stood at 66 µg/mL (≈ 197 µM); against Priestia megaterium [10], 132 µg/mL (≈ 394 µM); against Pseudomonas aeruginosa [11] it was 8.25 µg/mL (≈ 24.6 µM); in the assay on Staphylococcus aureus [12], 33 µg/mL (≈ 98.4 µM); in the assay with Escherichia coli [15] it was 132 µg/mL (≈ 394 µM); with Candida albicans [2], 132 µg/mL (≈ 394 µM). Moreover, the MIC is 132 µg/mL (≈ 394 µM) against Klebsiella pneumoniae [16] and 66 µg/mL (≈ 197 µM) in the assay with Saccharomyces cerevisiae [4].
For `O=C(O)c1cn(C2CC2)c2cc(N3CCNCC3)c(F)cc2c1=O` [CIPROFLOXACIN], the MIC came out at 16.5 µg/mL (≈ 49.8 µM) in the assay on Micrococcus luteus [8]; 8.25 µg/mL (≈ 24.9 µM) in the assay on Priestia megaterium [10]; 16.5 µg/mL (≈ 49.8 µM) against Pseudomonas aeruginosa [11]; 8.25 µg/mL (≈ 24.9 µM) against Staphylococcus aureus [12]; 16.5 µg/mL (≈ 49.8 µM) in the assay with Escherichia coli [15]; 16.5 µg/mL (≈ 49.8 µM) with Klebsiella pneumoniae [16]. Also, the lowest concentration to inhibit growth with Bacillus subtilis [19] (MIC) was 8.25 µg/mL (≈ 24.9 µM). In addition, the zone of inhibition at 50 µg/mL is 25 mm with Klebsiella pneumoniae [21]; 22 mm in the assay with Bacillus subtilis [22]; 20 mm in the assay on Staphylococcus aureus [23]; 20 mm in the assay with Micrococcus luteus [24]; 24 mm with Pseudomonas aeruginosa [25]; 24 mm in the assay with Priestia megaterium [26].

The record behind these values is ChEMBL document CHEMBL2021863, “Design and synthesis of new 4-pyrazolin-3-yl-1,2,3-triazoles and 1,2,3-triazol-4-yl-pyrazolin-1-ylthiazoles as potential antimicrobial agents” (2012).
